Test results taken from patent US11136313B2, “Compounds, compositions, and methods for modulating CFTR” (Proteostasis Therapeutics, Inc., priority 2015, dated 2021).

Target: T1, ΔF508-CFTR (Homo sapiens, UniProt P13569, DEL508-508)
T1 construct: Primary lung epithelial cells homozygous for the Cystic Fibrosis-causing ΔF508 mutation were differentiated for a minimum of 4 weeks; endogenous in cells; host or cells: primary lung epithelial cells (hBE) homozygous for ΔF508, differentiated at an air-liquid interface
T1 sequence (P13569 with tags, fused parts or gaps DEL508-508): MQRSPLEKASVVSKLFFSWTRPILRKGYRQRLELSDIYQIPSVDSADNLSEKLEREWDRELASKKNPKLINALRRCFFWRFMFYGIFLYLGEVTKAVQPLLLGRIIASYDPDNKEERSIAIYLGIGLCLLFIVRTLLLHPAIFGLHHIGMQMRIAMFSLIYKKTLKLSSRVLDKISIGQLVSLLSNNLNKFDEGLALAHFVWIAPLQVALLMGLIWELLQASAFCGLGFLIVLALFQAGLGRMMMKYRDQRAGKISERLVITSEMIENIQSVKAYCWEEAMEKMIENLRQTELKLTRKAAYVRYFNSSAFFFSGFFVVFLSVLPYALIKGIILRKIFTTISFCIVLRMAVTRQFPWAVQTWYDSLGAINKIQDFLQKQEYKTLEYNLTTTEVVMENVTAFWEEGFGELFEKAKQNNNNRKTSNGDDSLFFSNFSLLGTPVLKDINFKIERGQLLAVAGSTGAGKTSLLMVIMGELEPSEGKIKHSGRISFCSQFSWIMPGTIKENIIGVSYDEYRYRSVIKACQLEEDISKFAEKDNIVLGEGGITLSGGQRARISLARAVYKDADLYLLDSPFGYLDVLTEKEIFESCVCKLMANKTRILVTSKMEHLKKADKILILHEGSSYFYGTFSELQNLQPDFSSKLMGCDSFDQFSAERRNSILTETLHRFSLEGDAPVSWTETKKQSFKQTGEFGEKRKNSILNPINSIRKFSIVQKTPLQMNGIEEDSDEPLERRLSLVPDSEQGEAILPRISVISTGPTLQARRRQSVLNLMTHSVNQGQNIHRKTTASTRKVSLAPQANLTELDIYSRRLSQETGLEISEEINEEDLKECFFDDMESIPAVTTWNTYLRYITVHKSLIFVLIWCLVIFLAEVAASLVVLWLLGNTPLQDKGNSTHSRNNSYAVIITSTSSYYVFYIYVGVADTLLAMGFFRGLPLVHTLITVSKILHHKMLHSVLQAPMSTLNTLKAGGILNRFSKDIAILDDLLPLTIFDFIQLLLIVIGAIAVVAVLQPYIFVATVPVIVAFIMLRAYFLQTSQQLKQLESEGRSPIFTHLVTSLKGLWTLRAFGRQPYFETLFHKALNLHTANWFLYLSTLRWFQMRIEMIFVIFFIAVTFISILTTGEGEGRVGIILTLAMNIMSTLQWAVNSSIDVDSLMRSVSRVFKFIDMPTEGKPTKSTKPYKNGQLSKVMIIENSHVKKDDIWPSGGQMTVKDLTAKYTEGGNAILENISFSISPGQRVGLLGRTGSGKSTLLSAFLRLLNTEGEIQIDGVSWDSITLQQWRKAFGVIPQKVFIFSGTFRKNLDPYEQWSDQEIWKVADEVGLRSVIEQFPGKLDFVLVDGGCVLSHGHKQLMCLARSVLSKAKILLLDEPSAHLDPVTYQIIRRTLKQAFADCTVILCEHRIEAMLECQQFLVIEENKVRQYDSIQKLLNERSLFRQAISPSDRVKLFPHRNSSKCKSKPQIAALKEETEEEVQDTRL
Test: hBE equivalent current (Ieq) assay: AUC of equivalent chloride current after forskolin/VX-770 in primary lung epithelial cells homozygous for ΔF508
Type: cell-based
Conditions: relative to CFTR amplifier (Compound A)+VX-809 (3 uM), compound at 10 uM and Compound A at 3 uM, 24 h treatment
In short: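 Readout is the increase over vehicle in equivalent chloride current AUC from forskolin/VX-770 addition to bumetanide, measured by current clamp at 36 °C after benzamil block of ENaC. Cultures were homozygous ΔF508 primary lung epithelium grown ≥4 weeks at air-liquid interface and exposed basolaterally to compound for 24 h.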

| Compound | Activity |
| --- | --- |
| CCc1ccc(COc2ccccc2)c2c(C(=O)O)cc(-c3csc4ccccc34)nc12 [Compound 180] | ++ (activity>50% of CFTR amplifier+VX-809 (3 uM) with compound at 10 uM and Compound A at 3 uM) |
| CCc1ccc(O[C@H]2CCC[C@@H](C)C2)c2c(C(=O)O)cc(-c3csc4ccccc34)nc12 [Compound 181, 2-(1-Benzothiophen-3-yl)-8-ethyl-5-[[(1S,3R)-3-methylcyclohexyl]oxy]quinoline-4-carboxylic Acid] | ++ (activity>50% of CFTR amplifier+VX-809 (3 uM) with compound at 10 uM and Compound A at 3 uM) |
| CCc1ccc(O[C@@H]2CCC[C@H](C)C2)c2c(C(=O)O)cc(-c3csc4ccccc34)nc12 [Compound 182, 2-(Benzo[b]thiophen-3-yl)-8-ethyl-5-(((1R,3S)-3-methylcyclohexyl)oxy)quinoline-4-carboxylic Acid] | ++ (activity>50% of CFTR amplifier+VX-809 (3 uM) with compound at 10 uM and Compound A at 3 uM) |
| CCc1ccc(O[C@@H]2CCC[C@@H](C)C2)c2c(C(=O)O)cc(-c3csc4ccccc34)nc12 [Compound 184, 2-(Benzo[b]thiophen-3-yl)-8-ethyl-5-(((1R,3R)-3-methylcyclohexyl)oxy)quinoline-4-carboxylic Acid] | ++ (activity>50% of CFTR amplifier+VX-809 (3 uM) with compound at 10 uM and Compound A at 3 uM) |
| CCc1ccc(OCc2cccc(C)c2)c2c(C(=O)O)cc(-c3csc4ccccc34)nc12 [Compound 188] | ++ (activity>50% of CFTR amplifier+VX-809 (3 uM) with compound at 10 uM and Compound A at 3 uM) |
| CCc1ccc(OCc2ccc(C)cc2)c2c(C(=O)O)cc(-c3csc4ccccc34)nc12 [Compound 189] | ++ (activity>50% of CFTR amplifier+VX-809 (3 uM) with compound at 10 uM and Compound A at 3 uM) |
| CCc1ccc(OCc2ccc(-c3cnccn3)cc2)c2c(C(=O)O)cc(-c3csc4ccccc34)nc12 [Compound 192, 2-(1-Benzothiophen-3-yl)-8-ethyl-5-[[4-(pyrazin-2-yl)phenyl]methoxy]quinoline-4-carboxylic acid] | ++ (activity>50% of CFTR amplifier+VX-809 (3 uM) with compound at 10 uM and Compound A at 3 uM) |
| CCc1ccc(OCc2cccc(-c3cccnc3)c2)c2c(C(=O)O)cc(-c3csc4ccccc34)nc12 [Compound 194] | + (activity<50% of an CFTR amplifier (Compound A)+VX-809 (3 uM) with compound at 10 uM and Compound A at 3 uM) |
| CCc1ccc(OCc2ccc(-c3cccnc3)cc2)c2c(C(=O)O)cc(-c3csc4ccccc34)nc12 [Compound 195] | ++ (activity>50% of CFTR amplifier+VX-809 (3 uM) with compound at 10 uM and Compound A at 3 uM) |
| Cc1c(-c2cc(C(=O)O)c3c(O[C@H]4CC[C@@H](c5ncco5)CC4)ccc(C)c3n2)oc2ccccc12 [Compound 196] | ++ (activity>50% of CFTR amplifier+VX-809 (3 uM) with compound at 10 uM and Compound A at 3 uM) |
| Cc1c(-c2cc(C(=O)O)c3c(O[C@H]4CC[C@H](c5ncco5)CC4)ccc(C)c3n2)oc2ccccc12 [Compound 197] | ++ (activity>50% of CFTR amplifier+VX-809 (3 uM) with compound at 10 uM and Compound A at 3 uM) |
| Cc1ccc(O[C@H](C)c2ccccc2)c2c(C(=O)[O-])cc(-c3nc4ccccn4c3C)nc12.[Na+] [Compound 200] | + (activity<50% of an CFTR amplifier (Compound A)+VX-809 (3 uM) with compound at 10 uM and Compound A at 3 uM) |
| Cc1ccc(O[C@@H](C)c2ccccc2)c2c(C(=O)[O-])cc(-c3nc4ccccn4c3C)nc12.[Na+] [Compound 201] | ++ (activity>50% of CFTR amplifier+VX-809 (3 uM) with compound at 10 uM and Compound A at 3 uM) |
| Cc1ccc(O[C@H](C)c2ccccc2)c2c(C(=O)[O-])cc(-c3cn4ccccc4n3)nc12.[Na+] [Compound 202, Sodium 2-[Imidazo[1,2-a]pyridin-2-yl]-8-methyl-5-[(1R)-1-phenylethoxy]quinoline-4-carboxylate] | + (activity<50% of an CFTR amplifier (Compound A)+VX-809 (3 uM) with compound at 10 uM and Compound A at 3 uM) |
| Cc1ccc(O[C@@H](C)c2ccccc2)c2c(C(=O)[O-])cc(-c3cn4ccccc4n3)nc12.[Na+] [Compound 203, Sodium 2-[Imidazo[1,2-a]pyridin-2-yl]-8-methyl-5-[(1S)-1-phenylethoxy]quinoline-4-carboxylate] | + (activity<50% of an CFTR amplifier (Compound A)+VX-809 (3 uM) with compound at 10 uM and Compound A at 3 uM) |
| Cc1ccc(O[C@H](C)c2ccccc2)c2c(C(=O)[O-])cc(-c3cc4ccccn4n3)nc12.[Na+] [Compound 208] | ++ (activity>50% of CFTR amplifier+VX-809 (3 uM) with compound at 10 uM and Compound A at 3 uM) |
| Cc1ccc(O[C@@H](C)c2ccccc2)c2c(C(=O)[O-])cc(-c3cc4ccccn4n3)nc12.[Na+] [Compound 209] | + (activity<50% of an CFTR amplifier (Compound A)+VX-809 (3 uM) with compound at 10 uM and Compound A at 3 uM) |
| Cc1c(-c2cc(C(=O)[O-])c3c(O[C@H](C)c4ccccc4)ccc(C)c3n2)oc2ccccc12.[Na+] [Compound 212] | ++ (activity>50% of CFTR amplifier+VX-809 (3 uM) with compound at 10 uM and Compound A at 3 uM) |
| Cc1c(-c2cc(C(=O)[O-])c3c(O[C@@H](C)c4ccccc4)ccc(C)c3n2)oc2ccccc12.[Na+] [Compound 213] | ++ (activity>50% of CFTR amplifier+VX-809 (3 uM) with compound at 10 uM and Compound A at 3 uM) |
| CCc1ccc(O[C@@H]2CCC[C@H](C)C2)c2c(C(=O)[O-])cc(-c3sc4ccccc4c3C)nc12.[Na+] [Compound 214, Sodium 8-Ethyl-2-(3-methyl-1-benzothiophen-2-yl)-5-[[(1R,3S)-3-methylcyclohexyl]oxy]quinoline-4-carboxylate] | ++ (activity>50% of CFTR amplifier+VX-809 (3 uM) with compound at 10 uM and Compound A at 3 uM) |
| CCc1ccc(O[C@H]2CCC[C@@H](C)C2)c2c(C(=O)[O-])cc(-c3sc4ccccc4c3C)nc12.[Na+] [Compound 215, Sodium 8-Ethyl-2-(3-methyl-1-benzothiophen-2-yl)-5-[[(1S,3R)-3-methylcyclohexyl]oxy]quinoline-4-carboxylate] | ++ (activity>50% of CFTR amplifier+VX-809 (3 uM) with compound at 10 uM and Compound A at 3 uM) |
| CCc1ccc(O[C@H]2CCC[C@H](C)C2)c2c(C(=O)[O-])cc(-c3sc4ccccc4c3C)nc12.[Na+] [Compound 216, Sodium 8-Ethyl-2-(3-methyl-1-benzothiophen-2-yl)-5-[[(1S,3S)-3-methylcyclohexyl]oxy]quinoline-4-carboxylate] | ++ (activity>50% of CFTR amplifier+VX-809 (3 uM) with compound at 10 uM and Compound A at 3 uM) |
| CCc1ccc(O[C@@H]2CCC[C@@H](C)C2)c2c(C(=O)[O-])cc(-c3sc4ccccc4c3C)nc12.[Na+] [Compound 217, Sodium 8-Ethyl-2-(3-methyl-1-benzothiophen-2-yl)-5-[[(1R,3R)-3-methylcyclohexyl]oxy]quinoline-4-carboxylate] | ++ (activity>50% of CFTR amplifier+VX-809 (3 uM) with compound at 10 uM and Compound A at 3 uM) |
| Cc1c(-c2cc(C(=O)[O-])c3c(O[C@@H]4CCC[C@H](C)C4)ccc(C)c3n2)sc2ccccc12.[Na+] [Compound 218, Sodium 8-Methyl-2-(3-methyl-1-benzothiophen-2-yl)-5-[[(1R,3S)-3-methylcyclohexyl]oxy]quinoline-4-carboxylate] | ++ (activity>50% of CFTR amplifier+VX-809 (3 uM) with compound at 10 uM and Compound A at 3 uM) |
